Assays:
[1] = Non-specific binding (NSB) of drugs to ultrafiltration membrane filter, regenerated cellulose (Millipore Ultrafree-MC UFC 3LGC00, 10 k NMWL); type: physicochemical; conditions: for NSB (%) Control / NSB (%) Tween 80 / NSB (%) BAK / NSB (%) 0.5% BAK / NSB (%) 1% BAK / NSB (%) 2% BAK / NSB (%) 5% BAK / NSB (%) 0.5% Tween / NSB (%) 1% Tween / NSB (%) 2% Tween / NSB (%) 5% Tween / NSB (%) SLS / NSB (%) Serum: regenerated cellulose; for NSB (%) Tween 80: pretreatment with 0.5% Tween 80; for NSB (%) BAK: pretreatment with 0.5% benzalkonium chloride; for NSB (%) 0.5% BAK: pretreatment 0.5% benzalkonium chloride; for NSB (%) 0.5% BAK / NSB (%) 1% BAK / NSB (%) 2% BAK / NSB (%) 5% BAK: drug 10 uM; for NSB (%) 1% BAK: pretreatment 1% benzalkonium chloride; for NSB (%) 2% BAK: pretreatment 2% benzalkonium chloride; for NSB (%) 5% BAK: pretreatment 5% benzalkonium chloride; for NSB (%) RC: regenerated cellulose membrane, drug concentration 10 uM; for NSB (%) 0.5% Tween: pretreatment 0.5% Tween 80; for NSB (%) 0.5% Tween / NSB (%) 1% Tween / NSB (%) 2% Tween / NSB (%) 5% Tween: drug 5 uM; for NSB (%) 1% Tween: pretreatment 1% Tween 80; for NSB (%) 2% Tween: pretreatment 2% Tween 80; for NSB (%) 5% Tween: pretreatment 5% Tween 80; for NSB (%) SLS: pretreatment with 0.5% sodium lauryl sulfate; for NSB (%) Serum: pretreatment with human serum
Method: (§1) Various experiments were performed using the following reagents, surfactants and reservoirs (also comprising ultrafiltration units): human serum, pH 7.4 phosphate buffered saline (PBS), drug solution (i.e. compound) in serum at a concentration of 1-50 μM, and drug solution in PBS at a concentration of 1-50 μM were used as reagents. Surfactant solutions were 0.01-20% Tween 80 (polyoxyethylene 20 sorbitan monooleate) in PBS as neutral solution, 0.01-20% Benzalkonium chloride (BAK) in PBS as cationic solution, 0.01-20% Sodium lauryl sulfate (SLS) in PBS as anionic solution. An ultrafiltration reservoir (Millipore, Ultrafree-MC) comprising regenerated cellulose (UFC 3LGC00, 10 k NMWL) or polyethersulfone (UFC 3BSC00, 10 k NMWL) was used.
(§2) The upper ultrafiltration cup was connected to the reservoir tube and 25 μL surfactant solution was added to each well. After bedewing for 5 min, the reservoir tube containing the ultrafiltration cup was centrifuged for 10 min at 3000 g and room temperature.
(§3) 200 μL of PBS was added to each ultrafiltration cup and equilibrated for 30 min. Remaining PBS was removed from the ultrafiltration cup by gentle tapping the cup. The upper ultrafiltration cup was reconnected to a new reservoir tube, and 400 μL drug solution (1-50 μM) in serum or PBS was applied and equilibrated for 1 hr at room temperature.
(§4) The ultrafiltration tube was centrifuged for 18 min at 3000 g at room temperature. 50 μL sample was taken from the receiver (filtrate) and donor (drug solution in serum or PBS) for bioanalysis. Non-specific binding was calculated as follows:
(§5) NSB=(Cf1-Cf2)/Cf1, where NSB: non specific binding to membrane filter at pH 7.4 isotonic PBS, Cf1: free drug before filtration, and Cf2: free drug in the filtrate after filtration

[2] = Non-specific binding (NSB) of drugs to ultrafiltration membrane filter, polyethersulfone (Millipore Ultrafree-MC UFC 3BSC00, 10 k NMWL); type: physicochemical; conditions: no pretreatment, drug concentration 10 uM
Method: as §1, §2, §3, §4, §5

[3] = no surfactant pretreatment, drug concentration 5 uM, pH 7.4 PBS
[4] = no pretreatment, drug concentration 50 uM

Structure (SMILES)	NSB (%) Control [1, 3] [%]	NSB (%) Tween 80 ([1]; drug concentration 5 uM) [%]	NSB (%) BAK ([1]; drug concentration 5 uM) [%]	NSB (%) 0.5% BAK [1] [%]	NSB (%) 1% BAK [1] [%]	NSB (%) 2% BAK [1] [%]	NSB (%) 5% BAK [1] [%]	NSB (%) RC ([1]; no pretreatment) [%]	NSB (%) PES [2] [%]	NSB (%) Control [1, 4] [%]	NSB (%) 0.5% Tween [1] [%]	NSB (%) 1% Tween [1] [%]	NSB (%) 2% Tween [1] [%]	NSB (%) 5% Tween [1] [%]	NSB (%) SLS ([1]; drug concentration 50 uM) [%]	NSB (%) Serum ([1]; drug concentration 50 uM) [%]
Cc1cc(=O)n(-c2ccccc2)n1C [Antipyrine]	10	0	0	–	–	–	–	–	–	–	–	–	–	–	–	–
Cn1c(=O)c2c(ncn2C)n(C)c1=O [Caffeine]	17	0	0	–	–	–	–	–	–	–	–	–	–	–	–	–
CC(C)Cc1ccc(C(C)C(=O)O)cc1 (centres unmarked) [Ibuprofen]	29	2.3	–	–	–	–	–	–	–	–	–	–	–	–	–	–
CC[C@]1(O)C[C@@H]2CN(CCc3c([nH]c4ccccc34)[C@@](C(=O)OC)(c3cc4c(cc3OC)N(C)[C@H]3[C@@](O)(C(=O)OC)[C@H](OC(C)=O)[C@]5(CC)C=CCN6CC[C@]43[C@@H]65)C2)C1 [Vinblastine]	95	95.2	64	82	79	68	59	95	95	–	–	–	–	–	–	–
Cn1c(=O)c2[nH]cnc2n(C)c1=O [Theophylline]	8	0	0	–	–	–	–	–	–	–	–	–	–	–	–	–
CC(C)NCC(O)COc1cccc2ccccc12 (centres unmarked) [Propranolol]	91	46.5	13	14	15	5	10	91	69	91	66	65	60	52	84	90
CC(C(=O)O)c1cccc(C(=O)c2ccccc2)c1 (centres unmarked) [Ketoprofen]	34	4.1	–	–	–	–	–	–	–	–	–	–	–	–	–	–
COc1ccc(CCN(C)CCCC(C#N)(c2ccc(OC)c(OC)c2)C(C)C)cc1OC (centres unmarked) [Verapamil]	–	–	–	43	34	25	12	–	–	–	–	–	–	–	–	–
C[C@]12CCC(=O)C=C1CC[C@@H]1[C@@H]2[C@@H](O)C[C@@]2(C)[C@H]1CC[C@]2(O)C(=O)CO [Hydrocortisone]	87	21.1	25	30	22	16	14	87	71	87	52	35	33	30	62	84
COc1cc([C@@H]2c3cc4c(cc3[C@@H](O[C@@H]3O[C@@H]5CO[C@@H](C)O[C@H]5[C@H](O)[C@H]3O)[C@H]3COC(=O)[C@H]23)OCO4)cc(OC)c1O [Etoposide]	91	23.1	28.3	–	–	–	–	91	93	91	–	–	–	–	–	93

Reference: patent US20030082625A1, “Method for the pretreatment of a surface for the reduction of non-specific binding by chemical entities” (priority 2001, published 2003)
